Molecular target: T1, Aurora-2 (Homo sapiens, UniProt O14965)
T1 construct: addition of 10 μL of Aurora-2 stock solution to give a final concentration of 70 nM
T1 sequence (O14965 1-403): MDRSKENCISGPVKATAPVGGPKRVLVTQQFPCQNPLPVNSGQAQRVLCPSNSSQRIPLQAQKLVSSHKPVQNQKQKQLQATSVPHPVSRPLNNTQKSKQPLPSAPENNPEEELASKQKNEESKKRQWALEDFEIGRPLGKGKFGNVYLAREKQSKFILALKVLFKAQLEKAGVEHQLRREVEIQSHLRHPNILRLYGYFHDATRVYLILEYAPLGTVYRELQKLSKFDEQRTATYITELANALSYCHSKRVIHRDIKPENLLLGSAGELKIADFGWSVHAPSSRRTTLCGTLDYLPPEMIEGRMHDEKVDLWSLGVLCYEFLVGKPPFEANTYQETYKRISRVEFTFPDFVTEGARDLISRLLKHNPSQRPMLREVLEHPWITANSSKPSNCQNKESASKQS
Assay: Inhibition of AUR-2, coupled enzyme assay
Assay type: biochemical
Conditions: 70 nM Aurora-2, 800 μM peptide LRRASLG, 30° C.
Protocol: Compounds are screened in the following manner for their ability to inhibit Aurora-2 using a standard coupled enzyme assay (Fox et al. (1998) Protein Sci 7, 2249). To an assay stock buffer solution containing 0.1M HEPES 7.5, 10 mM MgCl2, 1 mM DTT, 25 mM NaCl, 2.5 mM phosphoenolpyruvate, […], […], […], and 800 μM peptide (LRRASLG, American Peptide, Sunnyvale, Calif.) is added a DMSO solution of a compound of the present invention to a final concentration of 30 μM. The resulting mixture is incubated at 30° C. for 10 min. The reaction was initiated by the addition of 10 μL of Aurora-2 stock solution to give a final concentration of 70 nM in the assay. The rates of reaction are obtained by monitoring absorbance at 340 nm over a 5 minute read time at 30° C. using a BioRad Ultramark plate reader (Hercules, Calif.). The Ki values are determined from the rate data as a function of inhibitor concentration.

Ki | SMILES
< 200 nM | NC(=O)c1ccc(-c2cnc3[nH]cc(-c4oncc4-c4cccc(F)c4F)c3c2)cc1 [Compound 153]
< 200 nM | Fc1cccc(-c2cnoc2-c2c[nH]c3ncc(Cl)cc23)c1F [Compound 44, 3-[4-(2,3-Difluoro-phenyl)-isoxazol-5-yl]-5-chloro-1H-pyrrolo[2,3-b]pyridine]
200 to 1000 nM | Cc1cnc2[nH]cc(-c3oncc3-c3cccc(F)c3F)c2c1 [Compound 46, 3-[4-(2,3-Difluoro-phenyl)-isoxazol-5-yl]-5-methyl-1H-pyrrolo[2,3-b]pyridine]
